Results as given in PubChem BioAssay (NCI).
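How tested: cells in 96-well plates exposed to compound for 48 hours at five concentrations. Here, GI50 denotes the concentration required for 50% inhibition of growth. TGI: concentration producing complete growth inhibition.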

Assays:
Test in all cases: NCI-60 cell line screen, 48 h
786-0 renal = tested on: 786-0 renal
A498 renal = tested on: A498 renal
A549 NSCLC = tested on: A549 NSCLC
ACHN renal = tested on: ACHN renal
BT-549 breast = tested on: BT-549 breast
CAKI-1 renal = tested on: CAKI-1 renal
CCRF-CEM leukemia = tested on: CCRF-CEM leukemia
COLO 205 colon = tested on: COLO 205 colon
DU-145 prostate = tested on: DU-145 prostate
EKVX NSCLC = tested on: EKVX NSCLC
HCC-2998 colon = tested on: HCC-2998 colon
HCT-116 colon = tested on: HCT-116 colon
HCT-15 colon = tested on: HCT-15 colon
HL-60(TB) leukemia = tested on: HL-60(TB) leukemia
HOP-62 NSCLC = tested on: HOP-62 NSCLC
HOP-92 NSCLC = tested on: HOP-92 NSCLC
HS 578T breast = tested on: HS 578T breast
HT29 colon = tested on: HT29 colon
IGROV1 ovarian = tested on: IGROV1 ovarian
K-562 leukemia = tested on: K-562 leukemia
KM12 colon = tested on: KM12 colon
M14 melanoma = tested on: M14 melanoma
MALME-3M melanoma = tested on: MALME-3M melanoma
MCF7 breast = tested on: MCF7 breast
MDA-MB-231 breast = tested on: MDA-MB-231 breast
MDA-MB-435 = tested on: MDA-MB-435
MOLT-4 leukemia = tested on: MOLT-4 leukemia
NCI-H226 lung = tested on: NCI-H226 lung
NCI-H23 lung = tested on: NCI-H23 lung
NCI-H460 lung = tested on: NCI-H460 lung
NCI-H522 lung = tested on: NCI-H522 lung
NCI/ADR-RES ovarian = tested on: NCI/ADR-RES ovarian
OVCAR-4 ovarian = tested on: OVCAR-4 ovarian
OVCAR-5 ovarian = tested on: OVCAR-5 ovarian
OVCAR-8 ovarian = tested on: OVCAR-8 ovarian
PC-3 prostate = tested on: PC-3 prostate
RPMI-8226 leukemia = tested on: RPMI-8226 leukemia
RXF 393 renal = tested on: RXF 393 renal
SF-268 CNS = tested on: SF-268 CNS
SF-295 CNS = tested on: SF-295 CNS
SF-539 CNS = tested on: SF-539 CNS
SK-MEL-2 melanoma = tested on: SK-MEL-2 melanoma
SK-MEL-28 melanoma = tested on: SK-MEL-28 melanoma
SK-MEL-5 melanoma = tested on: SK-MEL-5 melanoma
SN12C renal = tested on: SN12C renal
SNB-19 CNS = tested on: SNB-19 CNS
SNB-75 CNS = tested on: SNB-75 CNS
SR leukemia = tested on: SR leukemia
SW-620 colon = tested on: SW-620 colon
T-47D breast = tested on: T-47D breast
TK-10 renal = tested on: TK-10 renal
U251 CNS = tested on: U251 CNS
UACC-257 melanoma = tested on: UACC-257 melanoma
UACC-62 melanoma = tested on: UACC-62 melanoma
UO-31 renal = tested on: UO-31 renal

CNC(=O)c1c(NC(=O)c2ccccc2C(F)(F)F)sc2c1CCC(=O)C2
GI50 (786-0 renal): 3.8 µM
TGI (786-0 renal): > 100 µM
GI50 (A498 renal): 2090 nM
TGI (A498 renal): 6.24 µM
GI50 (A549 NSCLC): 3.28 µM
TGI (A549 NSCLC): > 100 µM
GI50 (ACHN renal): 397 nM
TGI (ACHN renal): 2030 nM
GI50 (BT-549 breast): 2540 nM
TGI (BT-549 breast): > 100 µM
GI50 (CAKI-1 renal): 464 nM
TGI (CAKI-1 renal): 2550 nM
GI50 (CCRF-CEM leukemia): 348 nM
TGI (CCRF-CEM leukemia): > 100 µM
GI50 (COLO 205 colon): 1290 nM
TGI (COLO 205 colon): 3.12 µM
GI50 (DU-145 prostate): 4.45 µM
TGI (DU-145 prostate): > 100 µM
GI50 (EKVX NSCLC): 1990 nM
TGI (EKVX NSCLC): 37.6 µM
GI50 (HCC-2998 colon): 2960 nM
TGI (HCC-2998 colon): 15.2 µM
GI50 (HCT-116 colon): 384 nM
TGI (HCT-116 colon): 12.1 µM
GI50 (HCT-15 colon): 370 nM
TGI (HCT-15 colon): 10.5 µM
GI50 (HL-60(TB) leukemia): 339 nM
TGI (HL-60(TB) leukemia): 13.4 µM
GI50 (HOP-62 NSCLC): 3.44 µM
TGI (HOP-62 NSCLC): > 100 µM
GI50 (HOP-92 NSCLC): 1200 nM
TGI (HOP-92 NSCLC): 3.39 µM
GI50 (HS 578T breast): 3.01 µM
TGI (HS 578T breast): > 100 µM
GI50 (HT29 colon): 1450 nM
TGI (HT29 colon): 9.66 µM
GI50 (IGROV1 ovarian): 1870 nM
TGI (IGROV1 ovarian): 17.8 µM
GI50 (K-562 leukemia): 417 nM
TGI (K-562 leukemia): > 100 µM
GI50 (KM12 colon): 4.29 µM
TGI (KM12 colon): 16.8 µM
GI50 (M14 melanoma): 2510 nM
TGI (M14 melanoma): 33.5 µM
GI50 (MALME-3M melanoma): 2260 nM
TGI (MALME-3M melanoma): 6.33 µM
GI50 (MCF7 breast): 1910 nM
TGI (MCF7 breast): 11.9 µM
GI50 (MDA-MB-231 breast): 2000 nM
TGI (MDA-MB-231 breast): 4.78 µM
GI50 (MDA-MB-435): 2720 nM
TGI (MDA-MB-435): 11.2 µM
GI50 (MOLT-4 leukemia): 1200 nM
TGI (MOLT-4 leukemia): > 100 µM
GI50 (NCI-H226 lung): 2460 nM
TGI (NCI-H226 lung): 8.01 µM
GI50 (NCI-H23 lung): 1330 nM
TGI (NCI-H23 lung): 7.61 µM
GI50 (NCI-H460 lung): 3.27 µM
TGI (NCI-H460 lung): > 100 µM
GI50 (NCI-H522 lung): 347 nM
TGI (NCI-H522 lung): 2330 nM
GI50 (NCI/ADR-RES ovarian): 1970 nM
TGI (NCI/ADR-RES ovarian): 13.4 µM
GI50 (OVCAR-4 ovarian): 1580 nM
TGI (OVCAR-4 ovarian): 4 µM
GI50 (OVCAR-5 ovarian): 1480 nM
TGI (OVCAR-5 ovarian): 5.58 µM
GI50 (OVCAR-8 ovarian): 1410 nM
TGI (OVCAR-8 ovarian): > 100 µM
GI50 (PC-3 prostate): 426 nM
TGI (PC-3 prostate): 14.6 µM
GI50 (RPMI-8226 leukemia): 278 nM
GI50 (RXF 393 renal): 1120 nM
TGI (RXF 393 renal): 4.2 µM
GI50 (SF-268 CNS): 3.19 µM
TGI (SF-268 CNS): > 100 µM
GI50 (SF-295 CNS): 2510 nM
TGI (SF-295 CNS): 7.63 µM
GI50 (SF-539 CNS): 678 nM
TGI (SF-539 CNS): 2220 nM
GI50 (SK-MEL-2 melanoma): 2770 nM
TGI (SK-MEL-2 melanoma): 7.6 µM
GI50 (SK-MEL-28 melanoma): 3.59 µM
TGI (SK-MEL-28 melanoma): 54.9 µM
GI50 (SK-MEL-5 melanoma): 1700 nM
TGI (SK-MEL-5 melanoma): 3.72 µM
GI50 (SN12C renal): 2900 nM
TGI (SN12C renal): > 100 µM
GI50 (SNB-19 CNS): 3.18 µM
TGI (SNB-19 CNS): > 100 µM
GI50 (SNB-75 CNS): 1540 nM
TGI (SNB-75 CNS): 6.82 µM
GI50 (SR leukemia): 538 nM
TGI (SR leukemia): > 100 µM
GI50 (SW-620 colon): 363 nM
TGI (SW-620 colon): 12.2 µM
GI50 (T-47D breast): 528 nM
TGI (T-47D breast): 4.98 µM
GI50 (TK-10 renal): 1540 nM
TGI (TK-10 renal): > 100 µM
GI50 (U251 CNS): 817 nM
TGI (U251 CNS): > 100 µM
GI50 (UACC-257 melanoma): 2760 nM
TGI (UACC-257 melanoma): 8.28 µM
GI50 (UACC-62 melanoma): 1450 nM
TGI (UACC-62 melanoma): 3.91 µM
GI50 (UO-31 renal): 574 nM
TGI (UO-31 renal): 1950 nM
